Source: patent US20170260178A1 (SPERO GYRASE, INC., priority 2012, published 2017)
Read-outs that look alike come from different tables or passages of the source.

Legend:
[1] = tested on: S. aureus (ATCC 29213); test: Bacterial assay: MIC against S. aureus; type: cell-based, Staphylococcus aureus; conditions: Staphylococcus aureus, ATCC29213, read-out: minimal inhibitory concentration (MIC)
[2] = tested on: S. pyogenes (ATCC 51339); test: Bacterial assay: MIC against S. pyogenes; type: cell-based, Streptococcus pyogenes; conditions: Streptococcus pyogenes, ATCC51339, read-out: minimal inhibitory concentration (MIC)
[3] = tested on: H. influenzae (ATCC 49247); test: Bacterial assay: MIC against H. influenzae; type: cell-based; conditions: Haemophilus influenzae
[4] = ATCC49247, H. influenzae ATCC 49247, read-out: minimal inhibitory concentration (MIC)

CCNC(=O)Nc1nc2cc(-c3cnc(C(C)O)nc3)cc(-c3cc(CP(=O)(OCC)OCC)ccn3)c2s1 (stereo not drawn) [Compound 100, 1-[7-[4-(diethoxyphosphorylmethyl)-2-pyridyl]-5-[2-(1-hydroxyethyl)pyrimidin-5-yl]-1,3-benzothiazol-2-yl]-3-ethyl-urea] showed an MIC [1] of at most 1 µg/mL, an MIC [2] of at most 1 µg/mL and an MIC ([3]; ATCC49247, read-out: minimal inhibitory concentration (MIC)) of at most 2 µg/mL.
Compound CCNC(=O)Nc1nc2cc(-c3cnc(C(C)O)nc3)cc(-c3cc(CN4CCOCC4C)ccn3)c2s1 (stereo not drawn) [Compound 68, 1-ethyl-3-[5-[2-(1-hydroxyethyl)pyrimidin-5-yl]-7-[4-[(3-methylmorpholin-4-yl)methyl]-2-pyridyl]-1,3-benzothiazol-2-yl]urea] has an MIC [1] of at most 1 µg/mL, an MIC [2] of at most 1 µg/mL and an MIC [3, 4] of at most 2 µg/mL.
CCNC(=O)Nc1nc2cc(-c3cnc([C@@H](O)[C@@H](C)O)nc3)cc(-c3ccccn3)c2s1 (relative stereo) [Compound 118, 1-[5-[2-[(1R*,2R*)-1,2-dihydroxypropyl]pyrimidin-5-yl]-7-(2-pyridyl)-1,3-benzothiazol-2-yl]-3-ethyl-urea] was tested, and the MIC [1] was at most 1 µg/mL, the MIC [2] was at most 1 µg/mL and the MIC [3, 4] was at most 2 µg/mL.
CCNC(=O)Nc1nc2cc(-c3cnc(C(C)O)nc3)cc(-c3ccc(C(C)O)cn3)c2s1 (stereo not drawn) [Compound 168, 1-ethyl-3-[7-[5-(1-hydroxyethyl)-2-pyridyl]-5-[2-(1-hydroxyethyl)pyrimidin-5-yl]-1,3-benzothiazol-2-yl]urea] was tested, and the MIC [1] was at most 1 µg/mL, the MIC [2] was at most 1 µg/mL and the MIC [3, 4] was at most 2 µg/mL.
With CCNC(=O)Nc1nc2cc(-c3cnc(C(C)(C)O)nc3)cc(-c3cc(CN4CC(OCC)C4)ccn3)c2s1 [Compound 175, 1-[7-[4-[(3-ethoxyazetidin-1-yl)methyl]-2-pyridyl]-5-[2-(1-hydroxy-1-methyl-ethyl)pyrimidin-5-yl]-1,3-benzothiazol-2-yl]-3-ethyl-urea] the MIC [1] was at most 1 µg/mL, the MIC [2] was at most 1 µg/mL and the MIC [3, 4] was at most 2 µg/mL.
CCNC(=O)Nc1nc2cc(-c3cnc(C4(O)CCS(=O)(=O)CC4)nc3)cc(-c3ccccn3)c2s1 [Compound 173, 1-ethyl-3-[5-[2-(4-hydroxy-1,1-dioxo-thian-4-yl)pyrimidin-5-yl]-7-(2-pyridyl)-1,3-benzothiazol-2-yl]urea] was tested, and the MIC [1] was at most 1 µg/mL, the MIC [2] was at most 1 µg/mL and the MIC [3, 4] was at most 2 µg/mL.
CCNC(=O)Nc1nc2cc(-c3cnc(C4(O)CCOCC4)nc3)cc(-c3ccccn3)c2s1 [Compound 111, 1-ethyl-3-[5-[2-(4-hydroxytetrahydropyran-4-yl)pyrimidin-5-yl]-7-(2-pyridyl)-1,3-benzothiazol-2-yl]urea] showed an MIC [1] of at most 1 µg/mL, an MIC [2] of at most 1 µg/mL and an MIC [3, 4] of at most 2 µg/mL.
With CCNC(=O)Nc1nc2cc(-c3cnc(C(C)(O)CO)nc3)cc(-c3ccccn3)c2s1 (stereo not drawn) [Compound 157, 1-[5-[2-[1,2-dihydroxy-1-methyl-ethyl]pyrimidin-5-yl]-7-(2-pyridyl)-1,3-benzothiazol-2-yl]-3-ethyl-urea] the MIC [1] was at most 1 µg/mL, the MIC [2] was at most 1 µg/mL and the MIC [3, 4] was at most 2 µg/mL.
CCNC(=O)Nc1nc2cc(-c3cnc(C(C)O)nc3)cc(-c3nccc(OC)c3F)c2s1 (stereo not drawn) [Compound 178, 1-ethyl-3-[7-(3-fluoro-4-methoxy-2-pyridyl)-5-[2-[1-hydroxyethyl]pyrimidin-5-yl]-1,3-benzothiazol-2-yl]urea] was tested, and the MIC [1] was at most 1 µg/mL, the MIC [2] was at most 1 µg/mL and the MIC [3, 4] was at most 2 µg/mL.
For CCNC(=O)Nc1nc2cc(-c3cnc([C@@H](O)[C@H](O)C(F)F)nc3)cc(-c3ccccn3)c2s1 (relative stereo) [Compound 130, 1-[5-[2-[(1R*,2S*)-3,3-difluoro-1,2-dihydroxy-propyl]pyrimidin-5-yl]-7-(2-pyridyl)-1,3-benzothiazol-2-yl]-3-ethyl-urea], the MIC [1] was at most 1 µg/mL, the MIC [2] was at most 1 µg/mL and the MIC [3, 4] was at most 2 µg/mL.
Work on CCNC(=O)Nc1nc2cc(-c3cnc(C(C)O)nc3)cc(-c3cc(CN4CC5(COC5)C4)ccn3)c2s1 (stereo not drawn) [Compound 73, 1-ethyl-3-[5-[2-(1-hydroxyethyl)pyrimidin-5-yl]-7-[4-(6-oxa-2-azaspiro[3.3]heptan-2-ylmethyl)-2-pyridyl]-1,3-benzothiazol-2-yl]urea] yielded an MIC [1] of at most 1 µg/mL, an MIC [2] of at most 1 µg/mL and an MIC [3, 4] of at most 2 µg/mL.
CCNC(=O)Nc1nc2cc(-c3cnc(C4(O)COC4)nc3)cc(-c3cc(CN4CCOCC4)ccn3)c2s1 [Compound 154, 1-ethyl-3-[5-[2-(3-hydroxyoxetan-3-yl)pyrimidin-5-yl]-7-[4-(morpholinomethyl)-2-pyridyl]-1,3-benzothiazol-2-yl]urea] was tested, and the MIC [1] was at most 1 µg/mL, the MIC [2] was at most 1 µg/mL and the MIC [3, 4] was at most 2 µg/mL.
Work on CCNC(=O)Nc1nc2cc(-c3cnc(C4(O)CCOCC4)nc3)cc(-c3cc(CN4CCOCC4)ccn3)c2s1 [Compound 125, 1-ethyl-3-[5-[2-(4-hydroxytetrahydropyran-4-yl)pyrimidin-5-yl]-7-[4-(morpholinomethyl)-2-pyridyl]-1,3-benzothiazol-2-yl]urea] yielded an MIC [1] of at most 1 µg/mL, an MIC [2] of at most 1 µg/mL and an MIC [3, 4] of at most 2 µg/mL.
For CCNC(=O)Nc1nc2cc(-c3cnc(C(C)(C)O)nc3)cc(-c3cc(OCCN4CCOCC4)ccn3)c2s1 [Compound 32, 1-ethyl-3-[5-[2-(1-hydroxy-1-methyl-ethyl)pyrimidin-5-yl]-7-[4-(2-morpholinoethoxy)-2-pyridyl]-1,3-benzothiazol-2-yl]urea], the MIC [1] was at most 1 µg/mL, the MIC [2] was at most 1 µg/mL and the MIC [3, 4] was at most 2 µg/mL.
Work on CCNC(=O)Nc1nc2cc(-c3ccc(C(C)(C)O)nc3)cc(-c3ccccn3)c2s1 [Compound 27, 1-ethyl-3-[5-[6-(1-hydroxy-1-methyl-ethyl)-3-pyridyl]-7-(2-pyridyl)-1,3-benzothiazol-2-yl]urea] yielded an MIC [1] of at most 1 µg/mL, an MIC [2] of at most 1 µg/mL and an MIC [3, 4] of at most 2 µg/mL.
In the case of CCNC(=O)Nc1nc2cc(-c3cnc(C4(O)COC4)nc3)cc(-c3ccccn3)c2s1 [Compound 113, 1-ethyl-3-[5-[2-(3-hydroxyoxetan-3-yl)pyrimidin-5-yl]-7-(2-pyridyl)-1,3-benzothiazol-2-yl]urea], the MIC [1] is reported as at most 1 µg/mL, the MIC [2] is reported as at most 1 µg/mL and the MIC [3, 4] is reported as at most 2 µg/mL.
CCNC(=O)Nc1nc2cc(-c3cnc(C(C)(C)O)nc3)cc(-c3cc(N4CCC(C)(C(=O)O)CC4)ncn3)c2s1 [Compound 87, 1-[6-[2-(ethylcarbamoylamino)-5-[2-(1-hydroxy-1-methyl-ethyl)pyrimidin-5-yl]-1,3-benzothiazol-7-yl]pyrimidin-4-yl]-4-methyl-piperidine-4-carboxylic acid] was tested, and the MIC [1] was at most 1 µg/mL, the MIC [2] was at most 1 µg/mL and the MIC [3, 4] was at most 2 µg/mL.
Compound CCNC(=O)Nc1nc2cc(-c3cnc(C(C)O)nc3)cc(-c3cc(OCC4CCCO4)ccn3)c2s1 (stereo not drawn) [Compound 104, 1-ethyl-3-[5-[2-(1-hydroxyethyl)pyrimidin-5-yl]-7-[4-(tetrahydrofuran-2-ylmethoxy)-2-pyridyl]-1,3-benzothiazol-2-yl]urea] has an MIC [1] of at most 1 µg/mL, an MIC [2] of at most 1 µg/mL and an MIC [3, 4] of at most 2 µg/mL.
With CCNC(=O)Nc1nc2cc(-c3cnc(C(C)O)nc3)cc(-c3cc(OCCOC)ccn3)c2s1 (stereo not drawn) [Compound 92, 1-ethyl-3-[5-[2-(1-hydroxyethyl)pyrimidin-5-yl]-7-[4-(2-methoxyethoxy)-2-pyridyl]-1,3-benzothiazol-2-yl]urea] the MIC [1] was at most 1 µg/mL, the MIC [2] was at most 1 µg/mL and the MIC [3, 4] was at most 2 µg/mL.
CCNC(=O)Nc1nc2cc(-c3ccc(C(C)O)nc3)cc(-c3ccccn3)c2s1 (stereo not drawn) [Compound 95, 1-ethyl-3-[5-[6-(1-hydroxyethyl)-3-pyridyl]-7-(2-pyridyl)-1,3-benzothiazol-2-yl]urea] showed an MIC [1] of at most 1 µg/mL, an MIC [2] of at most 1 µg/mL and an MIC [3, 4] of at most 2 µg/mL.
